Experiments:
[1] = target: PCP receptor; assay: [^3H]TCP binding to the PCP receptor (rat brain minus cerebellum homogenate); settings: inhibition of [^3H]TCP (1 nM) specific binding, 30 min, 25° C., pH 7.7
Protocol: 1-[1-(2-thienyl)-2-methylcyclohexyl]piperidine (TCP) binding to the PCP receptor was performed as previously described. […] The rat brain (minus the cerebellum) was removed and homogenized with an Ultraturax (Ika Werke, Staufen, Germany, maximum setting) in a 50 mM Tris/HCl, pH 7.7 buffer for 20 s at 4° C. The homogenate was then centrifuged at 49,000 g for 20 min. and the pellet was resuspended in the same buffer and the homogenization-centrifugation steps performed a second time. The final pellet was resuspended in 10 volumes of a 50 mM Tris/Hepes, pH 7.7 buffer and used without further purification.
The homogenate (0.5-0.8 mg protein/ml) was incubated with N-[1-(2-thienyl) cyclohexyl]3,4-[^3 H]piperidine ([^3 H]TCP, 1 nM) (Amersham, Arlington Heights, Ill, 48 Ci/mmol) in a 5 mM Tris/Hepes, pH 7.7 buffer in the absence (total binding) and in the presence of the test compounds for 30 min. at 25° C. in a volume of 0.5 ml. […] The filters were rinsed twice with 5 ml of a 50 mM NaCl, Tris HCl 10 mM, pH 7.7 buffer and the radioactivity retained counted in 3.5 ml ACS (Amersham) with an Excel 1410 (LKB) liquid scintillation spectrophotometer. The nonspecific binding was determined in parallel experiments in the presence of 100 μM unlabeled TCP.

[2] = test system: mixed neuronal and glial neocortical cells; assay: Protection of cultured neuronal cells against glutamate neurotoxicity (LDH release); assay type: cell-based, Sprague-Dawley rat; settings: Rattus norvegicus, glutamate 500 μM for 5 min, 24 h, 100% = glutamate without test compound, read-out: % OF DEAD; for neurotoxicity, % of glutamate alone at 0.1 µM: test compound 0.1 μM; for neurotoxicity, % of glutamate alone at 1 µM: test compound 1 μM; for neurotoxicity, % of glutamate alone at 5 µM: test compound 5 μM; for neurotoxicity, % of glutamate alone at 10 µM: test compound 10 μM
Protocol: Cultures of mixed neuronal and glial neocortical cells were prepared from 18-day-old Sprague-Dawley rat foetuses (IFFA-Credo, St. Germain l'Arbresle, France). The cerebral hemispheres were rapidly dissected in Hanks' BSS supplemented with glucose (6 g/l), incubated in trypsine-EDTA (5 min at 35° C.), rinsed with calcium/magnesium-free glucosed Hanks' and mechanically dissociated. After centrifugation (10 min, 70 g), the cells were resuspended in the culture medium consisting of 87% Eagle's minimal essential medium (MEM), 10% horse serum and 0.6% glucose (without antibiotics), and plated on poly-d-lysine (10 μg/cm^2) coated coverslips, in 24-well dishes, to a final density of 4×10^5 cells/cm^2 in 400 μl/well. The cultures were maintained for 2-3 weeks at 35° C. in a humidified atmosphere (95% air/5% CO2), one-third of the medium being replaced every 4 days.
After 17-20 days in vitro, the culture medium was replaced with 400 μl of experimental medium (EM supplemented with glucose) containing the test compound for 5 min. at room temperature. This medium was replaced with the experimental medium containing the same concentration of test compound plus glutamate 500 μM for another 5 min. Finally, the cells were rinsed with the experimental medium and incubated for 24 h. The control cultures had received the same number of replacements of medium as the experimental ones, with standard experimental medium. The 100% neurotoxicity level was based on the effect of glutamate 500 μM for 5 min. The protective effect was quantified by estimation of the activity of the lactate dehydrogenase (LDH) released in the medium. Culture supernatant (100 μl) was added to phosphate buffer (875 μl, 125 mM, pH 7.6) containing 0.3 mM pyruvic acid and β-NADH (25 μl, 10 mg/ml). The decrease in absorbance was measured at 340 nm (Lockhart, et al., Brain Res. 630:36-40 (1993)).
Four concentrations of test compounds were used, i.e., 10, 5, 1, and 0.1 μM. The dead-cell population was determined by LDH enzymic activity and the results, presented in Table II, were compared with the 100% mortality based on the 500 μM glutamate treated cells without test compound protection.

Row | SMILES | IC50 [1] [nM] | neurotoxicity, % of glutamate alone at 0.1 µM [2] [%] | neurotoxicity, % of glutamate alone at 1 µM [2] [%] | neurotoxicity, % of glutamate alone at 5 µM [2] [%] | neurotoxicity, % of glutamate alone at 10 µM [2] [%]
1 | C[C@@H]1CCCC[C@]1(c1ccco1)N1CCCCC1 [(1S,2R)1-[1-(2-Furanyl)-2-methylcyclohexyl]-piperidine] | 5.5 ± 1.9 | 92.5 | 83.6 | 43.3 | 32.1
2 | C[C@@H]1CCCC[C@]1(c1cccs1)N1CCCCC1 [(1S,2R)1-[1-(2-Thienyl)-2-methylcyclohexyl]-piperidine] |  | 90.3 | 32.9 | 27.2 | 29.7
